# Test system: maternal HIV+ sera (antibodies)
# Test: RIA / ELISA binding of maternal HIV+ sera to gp120 and gp41 peptides (Example 3)
# Set-up: species or system human
# Protocol: Radioimmunoassay (RIA) and enzyme-linked immunosorbent assay (ELISA) were performed by standard methodologies [E. Engvall, Meth. Immunol., 70:419-439 (1980); S. K. Pierce et al, J. Exp. Med., 144:1254-1262 (1976)]. Peptides were dissolved in 0.05M carbonate-bicarbonate buffer (pH 9.6) at a concentration of 10 μg/ml. Fifty μl (500 ng) of the peptides were immobilized in 96 well polyvinylchloride plates (Dynatech Laboratories, Inc.) overnight at 4° C. Plates were washed and non-specific sites were blocked with PBS containing 1% BSA overnight at 4° C.
# Dilutions of HIV positive maternal sera were made in blocking buffer at dilutions of 1:50 and 1:500 and incubated in peptide coated plates overnight at 4° C. Plates were washed with PBS and incubated with 75,000 cpm of ^125 I-labelled goat anti-human IgG. The antibody was iodinated by a chloramine T method [W. V. Williams et al, Proc. Natl. Acad. Sci. USA, 85:6488-6492 (1988)]. Plates were washed, dried and counted in a gamma counter to measure specific binding. Normal human serum (i.e., HIV seronegative) was used as a control.
# Alternatively, ELISA assays were performed in polystyrene plates (Dynatech Laboratories, Inc) in which 0.05% Tween 20 (Sigma Chemical Co.) was included in the washing, blocking and dilution buffers. The secondary antibody used was goat […] Ig conjugated to horseradish peroxidase (HRP) (Sigma Chemical Co). The substrate used for color development was 3,3',5,5' tetramethyl-benzidine dihydrochloride (TMB) (Sigma Chemical Co). Absorbance of samples was measured in a Dynatech MR5000 (Dynatech Laboratories, Inc.) plate reader and expressed as an optical density at wavelength of 450 nm (OD450).
# The following key is used for the designation of specific binding of the maternal sera samples to the peptides: The minus sign, -, is equivalent to the specific OD450 or cpm of sera sample binding to peptide divided by the specific OD450 or cpm of NHS sample binding to peptide, which value is less than 2. The plus sign, +, is equivalent to the specific OD450 or cpm of sera sample binding to peptide divided by the specific OD450 or cpm of NHS sample binding to peptide, which value is between 2 to 3.
# Specific binding is defined as the difference between the OD450 or cpm of sera to wells with peptide and the OD450 or cpm of sera to wells without peptide.
# Comparisons of number of peptides which bound maternal serum samples were made between the transmission group and the nontransmission group. The data was analyzed using the unpaired student's test. For the determination of differences in the binding of specific peptides between transmission and non-transmission groups, the Spearman's rank-order correlation test was performed.
# [1] = Serum No. 1, Non-Transmission Group
# [2] = Serum No. 2, Non-Transmission Group
# [3] = Serum No. 3, Non-Transmission Group
# [4] = Serum No. 4, Transmission Group
# [5] = Serum No. 5, Transmission Group
# [6] = Serum No. 6, Non-Transmission Group
# [7] = Serum No. 7, Non-Transmission Group
# [8] = Serum No. 8, Non-Transmission Group
# [9] = Serum No. 9, Non-Transmission Group
# [10] = Serum No. 10, Transmission Group
# [11] = Serum No. 11, Non-Transmission Group
# [12] = Serum No. 12, Non-Transmission Group
# [13] = Serum No. 13, Transmission Group
# [14] = Serum No. 14, Transmission Group
# [15] = Serum No. 15, Transmission Group
# [16] = Serum No. 16, Non-Transmission Group
# [17] = Serum No. 17, Non-Transmission Group
# [18] = Serum No. 18, Non-Transmission Group
# [19] = Serum No. 19, Transmission Group
# [20] = Serum No. 20, Non-Transmission Group
Sequence,Binding of maternal HIV+ serum to peptide (sera/NHS ratio) [1],Binding of maternal HIV+ serum to peptide (sera/NHS ratio) [2],Binding of maternal HIV+ serum to peptide (sera/NHS ratio) [3],Binding of maternal HIV+ serum to peptide (sera/NHS ratio) [4],Binding of maternal HIV+ serum to peptide (sera/NHS ratio) [5],Binding of maternal HIV+ serum to peptide (sera/NHS ratio) [6],Binding of maternal HIV+ serum to peptide (sera/NHS ratio) [7],Binding of maternal HIV+ serum to peptide (sera/NHS ratio) [8],Binding of maternal HIV+ serum to peptide (sera/NHS ratio) [9],Binding of maternal HIV+ serum to peptide (sera/NHS ratio) [10],Binding of maternal HIV+ serum to peptide (sera/NHS ratio) [11],Binding of maternal HIV+ serum to peptide (sera/NHS ratio) [12],Binding of maternal HIV+ serum to peptide (sera/NHS ratio) [13],Binding of maternal HIV+ serum to peptide (sera/NHS ratio) [14],Binding of maternal HIV+ serum to peptide (sera/NHS ratio) [15],Binding of maternal HIV+ serum to peptide (sera/NHS ratio) [16],Binding of maternal HIV+ serum to peptide (sera/NHS ratio) [17],Binding of maternal HIV+ serum to peptide (sera/NHS ratio) [18],Binding of maternal HIV+ serum to peptide (sera/NHS ratio) [19],Binding of maternal HIV+ serum to peptide (sera/NHS ratio) [20],other results
YDTEVHNVWATHACV [Peptide 94],++ (which value is greater than 3),"- (specific OD450 or cpm of sera sample binding to peptide divided by the specific OD450 or cpm of NHS sample binding to peptide, which value is less than 2)",++ (which value is greater than 3),"- (specific OD450 or cpm of sera sample binding to peptide divided by the specific OD450 or cpm of NHS sample binding to peptide, which value is less than 2)","- (specific OD450 or cpm of sera sample binding to peptide divided by the specific OD450 or cpm of NHS sample binding to peptide, which value is less than 2)","- (specific OD450 or cpm of sera sample binding to peptide divided by the specific OD450 or cpm of NHS sample binding to peptide, which value is less than 2)","- (specific OD450 or cpm of sera sample binding to peptide divided by the specific OD450 or cpm of NHS sample binding to peptide, which value is less than 2)","- (specific OD450 or cpm of sera sample binding to peptide divided by the specific OD450 or cpm of NHS sample binding to peptide, which value is less than 2)","- (specific OD450 or cpm of sera sample binding to peptide divided by the specific OD450 or cpm of NHS sample binding to peptide, which value is less than 2)","- (specific OD450 or cpm of sera sample binding to peptide divided by the specific OD450 or cpm of NHS sample binding to peptide, which value is less than 2)","- (specific OD450 or cpm of sera sample binding to peptide divided by the specific OD450 or cpm of NHS sample binding to peptide, which value is less than 2)","- (specific OD450 or cpm of sera sample binding to peptide divided by the specific OD450 or cpm of NHS sample binding to peptide, which value is less than 2)","- (specific OD450 or cpm of sera sample binding to peptide divided by the specific OD450 or cpm of NHS sample binding to peptide, which value is less than 2)","- (specific OD450 or cpm of sera sample binding to peptide divided by the specific OD450 or cpm of NHS sample binding to peptide, which value is less than 2)","- (specific OD450 or cpm of sera sample binding to peptide divided by the specific OD450 or cpm of NHS sample binding to peptide, which value is less than 2)","- (specific OD450 or cpm of sera sample binding to peptide divided by the specific OD450 or cpm of NHS sample binding to peptide, which value is less than 2)","- (specific OD450 or cpm of sera sample binding to peptide divided by the specific OD450 or cpm of NHS sample binding to peptide, which value is less than 2)","- (specific OD450 or cpm of sera sample binding to peptide divided by the specific OD450 or cpm of NHS sample binding to peptide, which value is less than 2)","- (specific OD450 or cpm of sera sample binding to peptide divided by the specific OD450 or cpm of NHS sample binding to peptide, which value is less than 2)","- (specific OD450 or cpm of sera sample binding to peptide divided by the specific OD450 or cpm of NHS sample binding to peptide, which value is less than 2)",Number of maternal sera binding to peptide (20 maternal sera): two; Binding of maternal sera to peptide (in words) (Example 3): Several maternal serum samples had reactivity; Number of binding maternal sera from the transmission group (vertical transmission group (7 sera)): neither
GYSPLSFQTHPIPR [Peptide 128],"- (specific OD450 or cpm of sera sample binding to peptide divided by the specific OD450 or cpm of NHS sample binding to peptide, which value is less than 2)","- (specific OD450 or cpm of sera sample binding to peptide divided by the specific OD450 or cpm of NHS sample binding to peptide, which value is less than 2)","- (specific OD450 or cpm of sera sample binding to peptide divided by the specific OD450 or cpm of NHS sample binding to peptide, which value is less than 2)","- (specific OD450 or cpm of sera sample binding to peptide divided by the specific OD450 or cpm of NHS sample binding to peptide, which value is less than 2)","- (specific OD450 or cpm of sera sample binding to peptide divided by the specific OD450 or cpm of NHS sample binding to peptide, which value is less than 2)","- (specific OD450 or cpm of sera sample binding to peptide divided by the specific OD450 or cpm of NHS sample binding to peptide, which value is less than 2)","- (specific OD450 or cpm of sera sample binding to peptide divided by the specific OD450 or cpm of NHS sample binding to peptide, which value is less than 2)","- (specific OD450 or cpm of sera sample binding to peptide divided by the specific OD450 or cpm of NHS sample binding to peptide, which value is less than 2)","- (specific OD450 or cpm of sera sample binding to peptide divided by the specific OD450 or cpm of NHS sample binding to peptide, which value is less than 2)","- (specific OD450 or cpm of sera sample binding to peptide divided by the specific OD450 or cpm of NHS sample binding to peptide, which value is less than 2)","- (specific OD450 or cpm of sera sample binding to peptide divided by the specific OD450 or cpm of NHS sample binding to peptide, which value is less than 2)","- (specific OD450 or cpm of sera sample binding to peptide divided by the specific OD450 or cpm of NHS sample binding to peptide, which value is less than 2)","- (specific OD450 or cpm of sera sample binding to peptide divided by the specific OD450 or cpm of NHS sample binding to peptide, which value is less than 2)","- (specific OD450 or cpm of sera sample binding to peptide divided by the specific OD450 or cpm of NHS sample binding to peptide, which value is less than 2)","- (specific OD450 or cpm of sera sample binding to peptide divided by the specific OD450 or cpm of NHS sample binding to peptide, which value is less than 2)","- (specific OD450 or cpm of sera sample binding to peptide divided by the specific OD450 or cpm of NHS sample binding to peptide, which value is less than 2)","- (specific OD450 or cpm of sera sample binding to peptide divided by the specific OD450 or cpm of NHS sample binding to peptide, which value is less than 2)","- (specific OD450 or cpm of sera sample binding to peptide divided by the specific OD450 or cpm of NHS sample binding to peptide, which value is less than 2)","- (specific OD450 or cpm of sera sample binding to peptide divided by the specific OD450 or cpm of NHS sample binding to peptide, which value is less than 2)","- (specific OD450 or cpm of sera sample binding to peptide divided by the specific OD450 or cpm of NHS sample binding to peptide, which value is less than 2)",–

# — patent US5556744A, “Methods and compositions for diagnosing and treating certain HIV infected patients” (The Trustees of the University of Pennsylvania, priority 1994, dated 1996)
